In the NIST ThermoML archive (doi:10.1016/j.jct.2014.06.012):

Assay: molar heat capacity at constant pressure
Settings: 101.33 kPa, Vacuum adiabatic calorimetry

O=P([O-])([O-])[O-].[Cs+].[Mn+2] [cesium manganese(II) phosphate]
molar heat capacity at constant pressure [J/K/mol]
Settings | Crystal 1 | Crystal 2
87.44 K | – | 66.08
89.1 K | – | 66.98
90 K | – | 67.48
92.52 K | – | 68.77
95.06 K | – | 70.08
97.6 K | – | 71.4
99.96 K | – | 72.65
100 K | – | 72.69
102.68 K | – | 74.12
105.79 K | – | 75.84
108.49 K | – | 77.53
110 K | – | 78.18
110.3 K | – | 78.39
111.89 K | – | 79.04
112.89 K | – | 79.62
113.69 K | – | 80.09
115.29 K | – | 81.13
116.83 K | – | 82.04
118.24 K | – | 82.7
119.21 K | – | 83.23
120 K | – | 83.73
120.39 K | – | 84.89
123.17 K | – | 91.87
124.56 K | – | 100.77
125.56 K | – | 106.26
126.99 K | – | 117.73
127 K | 86.55 | 86.55
128.36 K | 113.16 | –
128.73 K | 107.76 | –
130 K | 87.8 | –
130.58 K | 93.29 | –
131.88 K | 89.3 | –
132.69 K | 88.3 | –
133.47 K | 88.38 | –
134.22 K | 88.8 | –
135.31 K | 89.3 | –
136.46 K | 89.88 | –
137.83 K | 90.46 | –
138.61 K | 90.79 | –
139.44 K | 91.13 | –
140 K | 91.54 | –
140.05 K | 91.46 | –
141.84 K | 92.21 | –
143.65 K | 92.87 | –
